Laboratory results taken from US7153472B1, “Preservation and formulation of bioactive materials for storage and delivery in hydrophobic carriers” (priority 2000, dated 2006).

Columns and labels:
[1] = Potency of Amphotericin after foam drying and storage; type: physicochemical
Description: Freeze-dried samples of Amphotericin B were rehydrated with 5 ml 40 wt % sucrose per vial. Then the solutions (5 ml) were transferred into 50 ml sterilized glass vials for future preservation by drying. Before drying, the vials were covered with gray butyl slotted rubber stoppers. The vials were dried inside a vacuum chamber. The vials were placed on the surface of a stainless steel shelf inside the chamber. Before the vacuum was applied the shelf temperature was decreased to 5 C. The hydrostatic pressure inside the chamber was decreased to 0.5 Torr. Under such conditions the suspension boiled for 30 min. The temperature of the shelf was then slowly (during 30 min) increased to 25 C. Visually, stable dry foams were formed inside the vials under these experimental conditions within 3 hours. After an additional 12 hours of drying at room temperature, the chamber was filled with the dry N2 gas and the rubber stoppers in a portion of the vials were pushed down. The vials were removed from the chamber and subsequently sealed with aluminum crimped seal. The samples were assayed right after drying and after 30 days of storage at 27.5 and 40 C. The results are shown in Table 1, together with the results obtained in the next experiment.
Another set of freeze-dried samples of Amphotericin B was rehydrated with 5 ml 40 wt % sucrose per vial. The solutions were then transferred into sterilized glass vials for future preservation by drying similar to that described above with additional drying at 45 C for additional 24 hours. After that, the chamber was filled again with the dry N2 gas, the rubber stoppers were pushed down and the vials were sealed. The samples were assayed right after drying and after 30 day of storage at 27.5 and 40 C.

[2] = Urokinase activity after foam drying and storage; type: biochemical
Description: Freeze-dried samples of Urokinase were rehydrated with 2 ml of 40 wt % sucrose. The solutions were then transferred to 20 ml sterilized glass vials for future preservation by drying. Before drying, the vials were covered with gray slotted rubber stoppers. The vials were dried inside a vacuum chamber. The vials were sitting on the surface of a stainless steel shelf inside the chamber. Before the vacuum was applied the shelf temperature was decreased to 5 C. Then the hydrostatic pressure inside the chamber was decreased to 0.5 Torr. Under such conditions, the suspension boiled for 30 min. […] Visually, under these experimental conditions, stable dry foams were formed inside the vials within 3 hours. After an additional 12 hours of drying at room temperature, the temperature was increased to 45 C for an additional 24 hours. After that the chamber was filled with dry N2 gas, the rubber stoppers were pushed down and the vials were sealed with aluminum crimp seals.
The samples were assayed right after drying and after 30 days of storage at 40 C. After drying the Urokinase, activity was 93% of the initial activity. This decrease was associated with the loss of Urokinase during transfer from initial vials to the vials at which the Urokinase was dried. After 30 days of storage at 40 C the activity was 90%. […]

[3] = isocitrate dehydrogenase activity (NADP reduction at 340 nm) after preservation by foam drying; type: biochemical
Description: An aqueous 50% glycerol isocitrate dehydrogenase solution from Sigma Chemical Co. containing 59.4 units of activity per ml was dialyzed for 5 hours in 0.1 M TRIS HCl buffer (pH 7.4). The activity of the isocitrate dehydrogenase in the 0.1 M TRIS HCl solution after dialysis was 26±1.8 units per ml. The activity decrease was associated with a decrease in the enzyme concentration because of dilution during the dialysis.
A mixture (100 l) containing 50 l of 50% by weight sucrose solution and 50 l of the isocitrate dehydrogenase suspension in 0.1 M TRIS HCl buffer (pH 7.4) was placed in 1.5 ml plastic tubes and preserved by drying at room temperature. First, the samples were dried for 4 hours under low vacuum (0.2 atm). Second, the samples were boiled during 4 hours under high vacuum (<0.01 atm). During this step, a mechanically stable dry foam was formed in the tubes. Third, the samples were stored during 8 days over DRIERITE under vacuum at room temperature.
After 8 days, the samples were rehydrated with 500 l water. Rehydration of the samples containing dry foams was an easy process that was completed within several seconds. The reconstituted sample was assayed for activity by assaying ability to reduce NADP, measured spectrophotometrically at 340 nm. The reaction mix included: 2 ml 0.1 M TRIS HCl buffer, pH 7.4; 10 l of 0.5% by weight NADP+; 10 l of 10 mM MnSO4; 10 l of 50 mM 1-isocitrate; and 10 l of an isocitrate dehydrogenase solution.

[4] = aqueous 50% glycerol solution from Sigma Chemical Co., before dialysis; cited from earlier work

In the case of `C[C@@H]1[C@H](O)[C@@H](C)/C=C/C=C/C=C/C=C/C=C/C=C/C=C/[C@H](O[C@@H]2O[C@H](C)[C@@H](O)[C@H](N)[C@@H]2O)C[C@@H]2O[C@](O)(C[C@@H](O)C[C@@H](O)[C@H](O)CC[C@@H](O)C[C@@H](O)CC(=O)O[C@H]1C)C[C@H](O)[C@H]2C(=O)O` [Amphotericin, Amphotericin B], the “Potency of Amphotericin (%)” value ([1]; Control (printed in column After drying)) is reported as 126%, the “Potency of Amphotericin (%) After 30 days at 27.5 C.” value ([1]; Td = 25 C) is reported as 114% and the “Potency of Amphotericin (%) After 30 days at 40 C.” value ([1]; Td = 25 C) is reported as 95%. For the same compound, the “Potency of Amphotericin (%) After drying” value ([1]; Td = 25 C) was 108%, the “Potency of Amphotericin (%) After 30 days at 27.5 C.” value ([1]; Td = 45 C) was 102% and the “Potency of Amphotericin (%) After 30 days at 40 C.” value ([1]; Td = 45 C) was 104%. For the same compound, the “Potency of Amphotericin (%) After drying” value ([1]; Td = 45 C) was 103%.
For Urokinase, the “Urokinase activity, % of the initial activity” value ([2]; after 30 days of storage at 40 C) was 90% and the “Urokinase activity, % of the initial activity” value ([2]; right after drying (40 wt % sucrose foam, up to 45 C)) was 93%.
For isocitrate dehydrogenase, the “loss of activity during drying and subsequent storage” value ([3]; 8 days at room temperature) was “no loss of activity”, the activity after rehydration ([3]; dried with sucrose to foam, stored 8 days over DRIERITE under vacuum at room temperature, 100 l sample rehydrated with 500 l water) was 2.6±0.2 units/ml and the “activity of isocitrate dehydrogenase after dialysis” value ([3]; in 0.1 M TRIS HCl (pH 7.4) after 5 hours dialysis) was 26±1.8 units per ml. For the same compound, the “activity of isocitrate dehydrogenase solution” value [4] was 59.4 units of activity per ml.
